US7846434B2, “Materials and methods for improved immunoglycoproteins” (Trubion Pharmaceuticals, Inc., priority 2006, dated 2010)
Several values for one entry are separate records, joined by “and”; a condition that tells them apart may be missing. Equal entries are not always repeated.

Experiments:
[1] = system: CHO cells expressing TRU-016; experiment: Growth and viability of CHO cells expressing TRU-016 cultured with carbohydrate modifier; type: cell-based, Chinese hamster; settings: castanospermine up to 1000 μM, up to 144 hours
Procedure: For shake flask runs, log phase host cells were seeded in shake flasks at 100,000 cells/ml with carbohydrate modifier at the concentration to be tested, and optionally with methotrexate (MTX) @ 50 nM.
Cells were seeded at 3×10^6/mL in 1350 mL of Ex-Cell 302 culture media (SATC Biosciences; with added non-essential amino acids, pyrucate, L-glutamine, pen/strep, HT Supplement and insulin, all from Invitrogen) at t=0 and brought to 5 L total volume at T>=72 hours. The cells were incubated at 37° C. and 5% carbon dioxide and monitored for growth and viability daily starting at day 6-7. Supernatants were typically harvested at day 10-12 when cell viability dropped below 60%.
Na-Azide was added to 0.02%, cells were removed by centrifugation and supernatant was filter sterilized through a 0.22 uM filter. Some assays described in other examples herein were performed on the supernatants as indicated, while other assays were performed on material that underwent further protein A purification. […] Cells were incubated at 37° C. and 5% carbon dioxide and monitored daily for growth and viability. […]

[2] = system: DG44 CHO cells transfected with TRU-016; experiment: Effect of castanospermine on DG44 CHO TRU-016 production, shake flasks; type: cell-based, Chinese hamster; settings: for Average TRU-016 Produced (ug/mL) ± SD: duplicate flasks
Procedure: Prior to initiation of the experiments, DG44 CHO cells transfected with TRU-016 were grown in shake flasks in Ex-Cell™ 302 CHO serum-free media (SAFC Biosciences) supplemented with 1× non-essential amino acids (MediaTech), 1× sodium pyruvate (MediaTech), 4 mM L-glutamine (MediaTech), 500 nM methotrexate (MP Biomedicals) and 1 mg/L recombinant insulin (Recombulin-GIBCO/Invitrogen Corp.) at 37° C. and 5% carbon dioxide in a humidified incubator. A 200 mM stock concentration of castanospermine (Alexis Biochemicals) was prepared by dilution of the castanospermine in sterile, distilled/deionized water (MediaTech) and filtration through a 13 mm Acrodisc® with a 0.2 μm HT Tuffryn membrane (Pall Corporation). Stock solution was aliquoted into sterile, O-ringed, 0.5 mL microcentrifuge tubes (Fisherbrand, Fisher Scientific) and frozen at −20° C. Approximately 1 hour prior to initiation of experiments, needed aliquots were thawed at room temperature and the contents of each vial mixed well by vortexing.
For each experiment, cells in log phase growth were seeded in the above medium into a total volume of 60 mL in 250 mL shaker flasks at a density of 200,000 cells/mL and CS added at the concentration to be tested. Final CS concentrations of 800 μM, 400 μM, 200 μM, 100 μM, 50 μM, 25 μM and 0 μM were each tested in duplicate flasks. All cultures were incubated at 37° C. and 5% carbon dioxide in a humidified incubator and monitored at least every other day for viable cell density and overall cell viability.
Cultures were harvested on day 8 when overall cell viability was 50-70% (Expt. 1) and 30-50% (Expt. 2). Cells and cellular debris were removed by centrifugation in a Sorvall Super T21 at 3000 rpm for 20 minutes after which the supernatant was sterile filtered through a Millipore Steriflip unit with a 0.22 μm Millipore Express Plus membrane and stored at 2-8° C. until purification.

O[C@H]1[C@H](O)[C@@H](O)CN2CC[C@H](O)[C@H]12 [castanospermine]
cell counts [1]: did not affect
percent cell viability [1]: did not affect
Average TRU-016 Produced (ug/mL) ± SD ([2]; CS 25 μM): 180.31 ± 6.6 µg/mL
ICA (Integral Cell Area) ([2]; CS 25 μM, listed as CS): 21.4 10^6 cells * days/mL and 21.1 10^6 cells * days/mL
Specific Productivity ([2]; CS 25 μM, listed as CS): 8.22 pg/cell/day and 8.78 pg/cell/day
Average TRU-016 Produced (ug/mL) ± SD ([2]; CS 50 μM): 176.63 ± 1.0 µg/mL
ICA (Integral Cell Area) ([2]; CS 50 μM, listed as CS): 21.6 10^6 cells * days/mL and 21.4 10^6 cells * days/mL
Specific Productivity ([2]; CS 50 μM, listed as CS): 8.15 pg/cell/day and 8.27 pg/cell/day
ICA (Integral Cell Area) ([2]; CS 100 μM): 21.6 10^6 cells * days/mL
Average TRU-016 Produced (ug/mL) ± SD ([2]; CS 100 μM): 161.83 ± 0.1 µg/mL
Specific Productivity ([2]; CS 100 μM, listed as CS): 7.48 pg/cell/day and 7.49 pg/cell/day
Average TRU-016 Produced (ug/mL) ± SD ([2]; CS 200 μM): 143.53 ± 1.4 µg/mL
ICA (Integral Cell Area) ([2]; CS 200 μM, listed as CS): 21.9 10^6 cells * days/mL and 22.0 10^6 cells * days/mL
Specific Productivity ([2]; CS 200 μM, listed as CS): 6.60 pg/cell/day and 6.47 pg/cell/day
Specific Productivity ([2]; CS 400 μM): 5.48 pg/cell/day
Average TRU-016 Produced (ug/mL) ± SD ([2]; CS 400 μM): 124.93 ± 1.4 µg/mL
ICA (Integral Cell Area) ([2]; CS 400 μM, listed as CS): 23.0 10^6 cells * days/mL and 22.4 10^6 cells * days/mL
Specific Productivity ([2]; CS 400 μM, listed as CS): 5.53 pg/cell/day
Average TRU-016 Produced (ug/mL) ± SD ([2]; CS 800 μM): 99.65 ± 6.1 µg/mL
ICA (Integral Cell Area) ([2]; CS 800 μM, listed as CS): 23.9 10^6 cells * days/mL and 23.8 10^6 cells * days/mL
Specific Productivity ([2]; CS 800 μM, listed as CS): 3.99 pg/cell/day and 4.36 pg/cell/day
cell viability and growth (integral cell area) ([2]; CS 25-800 μM): did not appear to be significantly affected
